One may read the Kd as a measure of binding affinity in units of concentration.

For assay [1], the target named is KpnFepA1658 (Klebsiella pneumoniae, UniProt A6T631, A407C). As to the kind of experiment: Fluorescence quenching binding to KpnFepA1658-FM sensor. Conditions: read-out: Affinity (KD) of sensor KpnFepA 1658, apo siderophore; apo (parenthetic value); A382C. As for the experimental part: (§1) Fluorescence modifications. For modifications with maleimide fluorophores, we inoculated E. coli strains OKN3, OKN13, OKN359 or OKN1359, harboring plasmids that encoded a Cys mutant LGP, from frozen stocks into LB, grew them overnight and sub-cultured at 1% into iron-deficient MOPS minimal media, with shaking (200 rpm) at 37° C. for 10-12 h, until late exponential phase. After collecting the cells by centrifugation at 7500×g for 15 min, and washing with 50 mM NaHPO4, pH 6.7, we labeled the Cys-mutant LGP with 5 μM FM in 50 mM NaHPO4, pH 6.7 for 15 min at 37° C. FM. We terminated the labeling reactions with 100 μM β-mercaptoethanol. […] After electrophoresis, we first visualized the fluorescence labeling on a Typhoon 8600 Biomolecular Scanner (GE/Amersham), and then stained the gels with Coomassie blue R (153).
(§2) Fluorescence spectroscopic binding determinations. We observed fluorophore-labeled cells in an SLM AMINCO 8100 fluorescence spectrometer, upgraded with an OLIS operating system and software (OLIS SpectralWorks, OLIS Inc., Bogart, GA), to control its shutters, polarizers and data collection. We also utilized an OLIS Clarity fluorescence spectrometer for fluorescence assays. […] We performed each measurement in triplicate and calculated the mean value of F/F0 at each ligand concentration. […]

The target in assay [2] is KpnIroN (Klebsiella pneumoniae, UniProt A0ACD7U953, T234C). The assay is described as follows: Fluorescence quenching binding to KpnIroN-FM sensor. The note with it: read-out: Affinity (KD) of sensor KpnIroN, apo siderophore; apo (parenthetic value); T210C. As for the experimental part:
as §1, §2

Assay [3] deals with T1, PaeFepA (Pseudomonas aeruginosa, UniProt Q05098, S296C).
T1 construct: expressed in transfected cells; host or cells: E. coli OKN3/OKN13/OKN359/OKN1359 carrying a pITS23 derivative
The assay is described as follows: Fluorescence quenching binding to PaeFepA-FM sensor. How it is done: as §1, §2

Assay [4] concerns the target T2, EcoFepB (Escherichia coli, UniProt P0AEL6, T297C).
T2 construct: adds a 6H-tag at either the N- or C-termini of the mature proteins; 6-His (N); made in house; host or cells: E. coli BL21 (pET28), IPTG-induced; purified on Talon Superflow
As to the kind of experiment: biochemical. Format: binding. An excerpt:
Cys Mutant protein expression and fluorescent labeling. The vector for LGP production, pITS23, carries wild-type EcofepA under control of its native, Fur-regulated promoter. For expression of each of the E. coli LGP (Fiu, FhuA, IutA, Cir, BtuB) we replaced EcofepA in pITS23 with the alternate LGP structural gene, with its own signal sequence, such that the iron-regulated EcofepA promoter-controlled biosynthesis. For LGP from of other species (KpnFepA, KpnIroN, KpnFyuA, AbaBauA, PaeFepA, PaeFpvA, CcrHutA), we replaced the sequence encoding mature EcoFepA with the sequence encoding the foreign mature LGP, downstream from the EcoFepA signal sequence, and regulated by the EcofepA promoter. […] We evaluated the expression and labeling of each of the cloned LGP by growing the appropriate E. coli host strain (OKN3, OKN359, OKN13 or OKN1359), harboring the plasmid constructs of interest, in iron-deficient MOPS medium to late log phase (A600 nm=2.5-3.5). We subsequently analyzed SDS-PAGE resolved samples of bacterial OM, or purified protein fractions, for fluorescence emissions at […] before staining with Coomassie blue R (FIGS. 7, 8, 9). In some cases, we used mouse monoclonal (α-EcoFepA) antibodies or rabbit polyclonal (α-FepB) antisera to determine the expression levels and stoichiometry of FM-labeling, which allowed quantification of expression. […]

The target in assay [5] is KpnFepA4984 (Klebsiella pneumoniae, UniProt A0ACD7TVS5, A414C). The assay is described as follows: Fluorescence quenching binding to KpnFepA4984-FM sensor. The note with it: read-out: Affinity (KD) of sensor KpnFepA 4984, apo siderophore; apo (parenthetic value); A390C. As for the experimental part: as §1, §2
Assay [6] has as its target T3, EcoFepA (Escherichia coli, UniProt P05825, A720C).
T3 construct: expressed in transfected cells; host or cells: E. coli OKN3/OKN13/OKN359/OKN1359 carrying pITS23 (fepA under its own promoter)
The assay is described as follows: biochemical. The class given is binding. As for the experimental part:
Fluorescence modifications. For modifications with maleimide fluorophores, we inoculated E. coli strains OKN3, OKN13, OKN359 or OKN1359, harboring plasmids that encoded a Cys mutant LGP, from frozen stocks into LB, grew them overnight and sub-cultured at 1% into iron-deficient MOPS minimal media, with shaking (200 rpm) at 37° C. for 10-12 h, until late exponential phase. After collecting the cells by centrifugation at 7500×g for 15 min, and washing with 50 mM NaHPO4, pH 6.7, we labeled the Cys-mutant LGP with 5 μM FM in 50 mM NaHPO4, pH 6.7 for 15 min at 37° C. FM. We terminated the labeling reactions with 100 μM β-mercaptoethanol. After collecting the fluoresceinated cells by centrifugation at 7500×g for 15 min, and washing with 50 mM NaHPO4, pH 6.7, we re-suspended them in PBS plus 0.2% glucose. We either immediately used the labeled cells in spectroscopic experiments, or rested them on ice (up to 24 h), or added glycerol to 15% and stored them (indefinitely) as 1 mL aliquots at −70° C. In the latter case, after thawing the labeled cells we pelleted them by centrifugation in a microfuge, washed them once with and re-suspended them in PBS containing 0.2% glucose. Lastly, for evaluation of protein expression or the extent of FM-labeling we solubilized aliquots of the cell suspensions with sample buffer, and subjected them to SDS-PAGE. After electrophoresis, we first visualized the fluorescence labeling on a Typhoon 8600 Biomolecular Scanner (GE/Amersham), and then stained the gels with Coomassie blue R (153).
Fluorescence spectroscopic binding determinations. We observed fluorophore-labeled cells in an SLM AMINCO 8100 fluorescence spectrometer, upgraded with an OLIS operating system and software (OLIS SpectralWorks, OLIS Inc., Bogart, GA), to control its shutters, polarizers and data collection. We also utilized an OLIS Clarity fluorescence spectrometer for fluorescence assays. For binding determinations we deposited 2.5×10^7 labeled cells in a quartz cuvette (final volume, 2 mL) with stirring at 37° C., measured the initial fluorescence (F0), and then added increasing concentrations of an iron complex while monitoring the quenching of fluorescence emissions (F) at 520 nm. We performed each measurement in triplicate and calculated the mean value of F/F0 at each ligand concentration. We plotted 1−F/F0 vs [ligand] and analyzed the data by the 1-site binding model of Grafit 6.0.12 (Erithacus Ltd. West Sussex, UK), that fits data to a single site saturation curve, where the amount of ligand bound is plotted as a function of the amount free:
These plots yielded KD values for each of the receptor-ligand interactions, with associated standard errors.
Table 1 lists KD values from analysis of fluorescence quenching with ferric or apo (parenthetic values) siderophores or porphyrins. For each determination, we measured the extent of fluorescence quenching of an FLGP, when exposed to sequentially increasing concentrations of the listed metal complexes, as plotted in FIGS. 2-4. We performed each experiment 2 or 3 times. The tabulated KD values are from single, representative experiments, in which we collected each data point in triplicate, plotted F/F0 vs [ligand] for each quenching titration, and fitted the curves to a single site binding model using Grafit 6.012 (Erithacus Ltd, […], UK).

In assay [7] the target is T4, HsaSCN (human siderocalin) (Homo sapiens, UniProt P80188, Q148C).
T4 construct: adds a 6H-tag at either the N- or C-termini of the mature proteins; 6-His (N); made in house; host or cells: E. coli BL21 (pET28), IPTG-induced; purified on Talon Superflow
As to the kind of experiment: Fluorescence quenching binding to purified HsaSCN-FM sensor. Conditions: ferric complexes and porphyrins; Cys residue Q128C, FM-labeled purified protein; NB = no binding; read-out: Affinity (KD) of sensor HsaSCN.

Assay [8] has as its target CcrHutA. The assay is described as follows: Fluorescence quenching binding to CcrHutA-FM sensor. Also noted: species or system Caulobacter crescentus. Conditions: porphyrins; Cys residue A635C, FM-labeled; NB = no binding; read-out: Affinity (KD) of sensor CcrHutA. As for the experimental part: as §1, §2

T3 sequence (P05825 23-746 A720C): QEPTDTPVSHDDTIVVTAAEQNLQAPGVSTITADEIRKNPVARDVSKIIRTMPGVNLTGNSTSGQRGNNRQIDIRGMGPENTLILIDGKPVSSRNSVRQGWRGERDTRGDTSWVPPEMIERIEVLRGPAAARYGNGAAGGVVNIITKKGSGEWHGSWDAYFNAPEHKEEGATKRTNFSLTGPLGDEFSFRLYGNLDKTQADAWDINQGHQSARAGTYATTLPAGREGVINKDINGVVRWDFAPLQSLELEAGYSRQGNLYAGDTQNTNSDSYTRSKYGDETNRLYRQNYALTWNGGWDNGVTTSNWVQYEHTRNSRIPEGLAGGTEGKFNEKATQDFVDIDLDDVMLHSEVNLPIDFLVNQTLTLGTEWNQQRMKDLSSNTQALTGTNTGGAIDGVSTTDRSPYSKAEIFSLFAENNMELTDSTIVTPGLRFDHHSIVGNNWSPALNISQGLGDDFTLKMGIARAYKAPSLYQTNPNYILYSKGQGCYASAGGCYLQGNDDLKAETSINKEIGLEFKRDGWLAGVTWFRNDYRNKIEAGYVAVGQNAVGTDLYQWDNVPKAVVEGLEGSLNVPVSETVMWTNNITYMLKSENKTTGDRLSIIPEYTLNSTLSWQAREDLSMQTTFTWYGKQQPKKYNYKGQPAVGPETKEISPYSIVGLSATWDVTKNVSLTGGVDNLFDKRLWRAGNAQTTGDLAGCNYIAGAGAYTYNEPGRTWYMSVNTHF
T4 sequence (P80188 21-198 Q148C): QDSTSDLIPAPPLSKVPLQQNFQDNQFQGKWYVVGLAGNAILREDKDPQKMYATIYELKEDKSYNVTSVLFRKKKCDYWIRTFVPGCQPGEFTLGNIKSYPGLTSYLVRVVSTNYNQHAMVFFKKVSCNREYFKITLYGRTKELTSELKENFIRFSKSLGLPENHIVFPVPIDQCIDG
T2 sequence (P0AEL6 27-318 T297C): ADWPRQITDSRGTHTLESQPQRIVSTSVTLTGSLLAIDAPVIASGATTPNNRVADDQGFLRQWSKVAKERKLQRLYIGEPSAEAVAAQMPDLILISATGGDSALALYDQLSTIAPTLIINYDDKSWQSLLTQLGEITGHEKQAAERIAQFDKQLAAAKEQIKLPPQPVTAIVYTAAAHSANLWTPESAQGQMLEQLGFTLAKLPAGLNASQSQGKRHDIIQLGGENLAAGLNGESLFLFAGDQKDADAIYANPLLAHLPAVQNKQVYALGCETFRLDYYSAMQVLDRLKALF

On to `O=C(N[C@H]1COC(=O)[C@@H](NC(=O)c2cccc(O)c2O)COC(=O)[C@@H](NC(=O)c2cccc(O)c2O)COC1=O)c1cccc(O)c1O` [Ent, enterobactin], for which the Kd amounted to 70 nM in assay [1]; 40 nM in assay [2]; 1700 nM in assay [3]; 6000 nM in assay [4]; 3300 nM in assay [5]; 30 nM in assay [6] (Affinity (KD) of sensor EcoFepA, apo siderophore, apo (parenthetic value), A698C). The same molecule registered a Kd in assay [6] (KD, EcoFepA / EcoFepA-FM) of 43 nM.
Consider hemin [Hn], for which the results for the Kd in assay [7] and in assay [8] were 340 nM and 150 nM, respectively.

The record behind these values is patent US20250155433A1, “FLUORESCENT SENSORS FOR DETECTION OF SIDEROPHORES AND OTHER MOLECULES PRODUCED BY BACTERIAL PATHOGENS” (Kansas State University Research Foundation, priority 2021, published 2025).
